The structures appear in SMILES notation. Active and inactive are the calls of the source. No rule for the calls is given here. Bounds are passed on as bounds.

This experiment can be described thus: non-covalent RecA intein splicing inhibitors, dose response, biochemical, cell-free, fluorescence, secondary screen (AID 449750).

Usually AC50 stands for the midpoint of the concentration-response curve, whichever way the signal moves. With `O=c1[nH]c(Nc2ccc(F)cc2)cc2ccccc12`, the AC50 was 2.58 µM. As for `CC(=O)c1cccc(-c2ccc3c(=O)[nH]c(Nc4ccccc4)cc3c2)c1`, the half-maximal activity concentration (AC50) was 6.06 µM. For `O=C(N/N=C1\C/C(=N\NC(=O)c2ccncc2)c2ccccc21)c1ccncc1`, the AC50 was 17.3 µM. As for `c1cc2cn[nH]c2cc1NC1CCCCCC1`, the figure is 36.2 µM. For `Cc1ccccc1N(Cc1cc(=O)[nH]c2ccccc12)C(=O)CCl` the value was 8.32 µM; for `Cn1cnc([N+](=O)[O-])c1S(=O)(=O)c1ccc(Cl)cc1`, > 38 µM (inactive); for `CCc1ccccc1N1C(=O)C(Cl)=C(N2CCOCC2)C1=O`, > 38 µM (inactive).

For `O=S(=O)(Nc1ccc(O)c2ccccc12)c1ccc(F)cc1`, the AC50 was 0.377 µM.

Regarding `O=c1[nH]c2ccccc2n2c(-c3ccccc3)nnc12`, the AC50 is 22.5 µM. As for `COc1cccc(NC(=O)CSc2c3c(nc4ccccc24)CCCC3)c1`, the figure is 39.5 µM. For `O=C(O)/C=C\C(=O)Nc1ccc(Oc2ccc(Br)cc2)cc1`, the AC50 is 15.2 µM. As for `C/C(CC(=O)Nc1ccc(F)cc1)=N\NC(=O)COc1ccccc1`, the figure is > 38 µM (inactive). Consider `OC(COC(c1ccc(Cl)cc1)c1ccc(Cl)cc1)CN1CCc2ccccc2C1` (stereo not given), for which the AC50 was 3.84 µM. For the compound `CCN(CC)CCOc1ccc(/C(=C(/Cl)c2ccccc2)c2ccccc2)cc1`, the AC50 was 9.31 µM. For `CC(=O)N1C(=O)C2(C(C#N)=C(N)Oc3c2c(C)nn3-c2ccccc2)c2ccccc21` (stereo not given) the value was 28 µM.

For `COc1cc(/C=N\NC(=O)c2ccccc2F)ccc1Oc1ccc([N+](=O)[O-])cn1`, the AC50 was > 38 µM (inactive). In the case of `COc1cc(C2C(C#N)=C(N)Oc3n[nH]c(-c4cccnc4)c32)cc(Br)c1O` (stereo not given), the AC50 is 4.01 µM. As for `C/C(CC(=O)Nc1cccnc1)=N\NC(=O)c1ccc([N+](=O)[O-])c(Cl)c1`, the figure is > 38 µM (inactive); as for `C/C(CC(=O)NCc1ccco1)=N\NC(=O)c1ccc([N+](=O)[O-])cc1Cl`, > 38 µM (inactive); as for `CS/C(=C/[N+](=O)[O-])Nc1cccc2c1C(C)CC2(C)C` (stereo not given), > 38 µM (inactive). `Cc1[nH]n(-c2ccccc2)c(=O)c1/C=N/NC(=O)c1ccc(O)cc1O`: the AC50 is > 38 µM (inactive). As for `O=C(CCl)N1c2ccccc2CCc2ccccc21`, the figure is 3.76 µM. For `CN1CCN(C2=C(Cl)C(=O)N(c3ccc(Cl)cc3)C2=O)CC1` the value was 3.49 µM; for `CC1=NN(c2ccccc2)C(=O)C1/C=C1\C(=O)NC(=O)N(c2ccc(C)c(C)c2)C1=O` (stereo not given), 26.1 µM.

Take `O=C(CCl)c1cc2c3c(c1)CC(=O)N3CCC2`: the AC50 was > 38 µM (inactive).

As to `CCN(CC)C(=O)CSc1nnc2nnc3cc(OC)ccc3n12`, the AC50 is > 38 µM (inactive). As for `Cc1ccc2c(c1)c1c3n2CCN(C(=O)CCl)C3CCC1` (stereo not given), the AC50 is 3.29 µM.

Turning to `COc1ccc(C(c2c(C)[nH][nH]c2=O)c2c(C)[nH][nH]c2=O)cc1Br`, the AC50 is 11.2 µM. As for `Oc1ccc(O)c2c1C1c3ccccc3C2c2ccccc21`, the figure is 38.4 µM. As for `COc1ccc(NC(=O)/C(Cl)=C(/Cl)S(=O)(=O)Cc2ccc(C)cc2)cn1`, the figure is 35.2 µM. As for `CCOC(=O)c1nnc(-c2cccs2)nc1Oc1ccc(Cl)cc1`, the figure is > 38 µM (inactive); as for `Cc1cc2c(N)cccc2nn1`, > 38 µM (inactive). As to `CCCCCCCCCCOC(=O)Cn1c(COc2ccccc2)[n+](C)c2ccccc21`, the AC50 is 7.97 µM. As for `Cc1onc(-c2ccccc2)c1-c1nc2cc(Cl)ccc2c(=O)o1`, the figure is > 38 µM (inactive); as for `CCOc1cc(NC2CS(=O)(=O)CC2O)c(OCC)cc1NC(=O)c1ccccc1` (stereo not given), > 38 µM (inactive); as for `COc1ccc(-c2cc(=O)[nH][nH]2)cc1OC`, 4.35 µM. Turning to `COCCN(C(=O)CCl)C(C(=O)NC1CCCCC1)c1ccccc1C` (stereo not given), the AC50 was 8.09 µM. For `CCCCOP(=O)(OCCCC)C1(NS(=O)(=O)c2ccccc2)C=CC(=O)c2ccccc21` (stereo not given), the AC50 is 9.07 µM.

Turning to `O=C1/C(=N\S(=O)(=O)c2cccs2)C([n+]2ccccc2)=C([O-])c2ccccc21`, the AC50 was 7.78 µM. As for `Cc1nnc(Sc2cc(NCCO)c([N+](=O)[O-])c3nonc23)s1`, the figure is > 38 µM (inactive). On to `C/C(CC(=O)Nc1ccccc1[N+](=O)[O-])=N\NC(=O)COc1ccccc1C`, for which the AC50 is > 38 µM (inactive). For `Cc1ccc(S(=O)(=O)/N=C2/C=C(C3C(=O)CC(C)(C)CC3=O)C(=O)c3ccccc32)cc1` the value was > 38 µM (inactive).

In the case of `CC1(C)Cc2ccccc2C2=NNC(=O)C2=N1`, the AC50 was 11 µM. For the compound `COc1ccc(OC)c(N2C(=O)C(Cl)=C(N3CCCCC3)C2=O)c1`, the AC50 was > 38 µM (inactive). On to `COc1cc2c(cc1OC)-c1c(OC)c(OC)cc3c1C(C2)N(C)CC3` (stereo not given), for which the AC50 is 10.3 µM.

Regarding `CCOc1cc(/C=C(\C#N)C(=O)Nc2cccc(C(=O)O)c2)cc(Br)c1OC(=O)c1ccc(OC)cc1`, the AC50 is 8.34 µM. For `CCCc1noc2c1C(c1ccoc1)C(C#N)=C(N)N2` (stereo not given) the value was > 38 µM (inactive); for `Cc1ccccc1CS(=O)(=O)c1ncc(Cl)c(C(=O)Nc2ccc(F)cc2)n1`, > 38 µM (inactive); for `CCOC(=O)CSCC(=O)N1N=C(c2cccs2)CC1c1ccc(F)cc1` (stereo not given), 16.9 µM.

With `O=S(=O)(Nc1c(O)ccc2ccccc12)c1cccc2ccccc12`, the AC50 was 26.8 µM.

As to `Cc1ccc(Nc2cc(C)nn2-c2nc(C)cc(=O)[nH]2)cc1`, the AC50 is 5.05 µM. In the case of `CC(=O)Oc1ccc(N(C(C)=O)S(=O)(=O)c2ccc3ccccc3c2)cc1Br`, the AC50 was 29.5 µM. As for `N#CC(C#N)C(c1ccsc1)c1c(-c2ccccc2)[nH][nH]c1=O` (stereo not given), the figure is 37.8 µM. `COc1ccc(/C=C2/C(=O)N(c3ccccc3)N=C2C)cc1Br`: the half-maximal activity concentration (AC50) is 5.66 µM. As for `CC(=O)NCCn1c(SCc2ccccc2C)nc2ccccc2c1=O`, the figure is > 38 µM (inactive). As for `Cc1ccc(-n2nnnc2CCl)cc1`, the figure is 24 µM. `O=C(NC1=C(Nc2ccc(F)cc2)C(=O)c2ccccc2C1=O)c1ccc(Cl)cc1`: the AC50 was 13.6 µM. For `CCOC(=O)N1CCC2(CC1)C(C#N)=C(N)Oc1n[nH]c(C)c12` the value was > 38 µM (inactive); for `Cc1[nH]n(-c2ccccc2)c(=O)c1C(C[N+](=O)[O-])c1ccc(Br)cc1` (stereo not given), 11.1 µM; for `COc1ccc(/C=C/C(=O)c2ccc(O)cc2)cc1COc1ccc(F)cc1`, > 38 µM (inactive).

For the compound `CCCCCCCCCCOC(=O)Cn1c(COc2ccccc2OC)[n+](C)c2ccccc21`, the AC50 was 7.46 µM. Turning to `CSc1nc(-c2ccc(Cl)cc2)nn1C(=O)c1ccco1`, the AC50 was > 38 µM (inactive). For `CCOC(=O)c1c(NC(=O)c2ccco2)n(C2CCCCC2)c2nc3ccccc3nc12` the value was > 12 µM (inactive); for `N#C/C(=C\c1ccc(O)c([N+](=O)[O-])c1)c1nc2ccccc2s1`, 33.8 µM; for `O=C(CCl)N(c1ccc(Cl)cc1)c1c[nH]c2ccccc12`, 0.746 µM.

With `Cc1ccc2c(c1)-c1c(ssc1=S)C(C)(C)N2C(=O)CSC1=NCCS1`, the AC50 was 32.5 µM. For `O=C(Nc1ccccc1)c1nnsc1S(=O)c1ccc(Cl)cc1` (stereo not given) the value was > 38 µM (inactive); for `COc1ccccc1-c1cc(C(F)(F)F)nc(S(=O)(=O)CCCC(=O)NCc2ccc(F)cc2)n1`, 6.03 µM; for `Cc1oc2c(c1C(=O)N1CCOCC1)C(=O)c1ccccc1C2=O`, 9.55 µM.

Turning to `N#CC1=C(N)Oc2n[nH]c(-c3ccccc3)c2C1c1cccc(OC(=O)N2CCOCC2)c1` (stereo not given), the AC50 is 32.7 µM. As to `CC(C)CNC(=O)c1c(N)n(Cc2ccc3c(c2)OCO3)c2nc3ccccc3nc12`, the concentration at half-maximal activity (AC50) was 5.59 µM.

As to `COCc1[nH]nc2c1C(c1ccccc1OC)C(C#N)=C(N)O2` (stereo not given), the AC50 is 36.5 µM. For `CC1=NN(c2ccc(Cl)c(C(=O)O)c2)C(=O)C1`, the AC50 is 3.21 µM. As for `COC(=O)/C(=C1/Oc2cc(C)oc(=O)c2S1)C(F)(F)F`, the figure is > 38 µM (inactive); as for `O=[N+]([O-])c1ccc2nc(Cl)nc(-c3ccccc3)c2c1`, > 38 µM (inactive). As for `COc1ccccc1-c1cn[nH]c(=S)n1`, the figure is > 38 µM (inactive).

Take `CC(C)(C)OC(=O)NCCc1nnc(S(=O)(=O)Cc2ccc(Cl)cc2Cl)o1`: the AC50 is > 38 µM (inactive). For `Cc1cc(Sc2nnc(/N=C/N(C)C)s2)c2ccccc2n1`, the AC50 is > 38 µM (inactive).

As to `CC(C)Cc1ccc(-c2cc(=O)[nH][nH]2)cc1`, the AC50 is 13.1 µM. For `COc1ccc(N(C(=O)CCl)C(C(=O)NCCc2ccccc2)c2cccs2)cc1` (stereo not given) the value was 0.958 µM. For `CCOC(=O)c1nnn(-c2nonc2-n2cccc2)c1CCl` the value was 26.6 µM; for `CCS(=O)(=O)c1ncc(Cl)c(C(=O)Nc2ccc(C)cc2)n1`, > 38 µM (inactive). As for `CCCc1nnc(NC(=O)c2nc(S(=O)(=O)Cc3ccc(C)cc3)ncc2Cl)s1`, the figure is 1.55 µM. Consider `COC(=O)c1ccccc1Sc1ncnc2onc(C)c12`, for which the AC50 is > 38 µM (inactive). Turning to `CS/C(=C\[N+](=O)[O-])Nc1ccc(OC(F)(F)F)cc1`, the AC50 is > 38 µM (inactive).

On to `COc1cc(C=C(c2nc3ccccc3s2)c2nc3ccccc3s2)ccc1O`, for which the AC50 is 3.26 µM. As for `O=C(CCl)Nc1ccccc1C(=O)Nc1ccc2c(c1)OCO2`, the figure is 10.5 µM; as for `CCC1C(=O)N(c2nc(C)cc(C)n2)N=C1C` (stereo not given), > 38 µM (inactive). On to `COc1ccc2nc3cccc(OC)c3nc2c1`, for which the AC50 was 16.1 µM.

`O=C1N=NC2=C1c1c3ccccc3c(O)n1CC2`: the AC50 is 3.03 µM. For `O=C(O)CN1C(=O)/C(=C\c2ccc(OC(=O)c3ccco3)cc2)SC1=S` the value was > 38 µM (inactive).

With `Cc1nn(Cc2ccccc2)c2c1C(c1ccco1)C(C#N)=C(N)O2` (stereo not given), the AC50 was > 38 µM (inactive). Regarding `COc1cccc(-c2[nH]nc3c2C(c2ccoc2)C(C#N)=C(N)O3)c1` (stereo not given), the AC50 was 28.8 µM. As for `COc1ccc(C(CCN(Cc2ccc(OC)c(OC)c2)C(=O)CCl)c2ccccc2)cc1` (stereo not given), the figure is 0.613 µM.

Regarding `CCCCOC(=O)CNc1nnc(SCC(=O)OCC)[nH]c1=O`, the AC50 is > 38 µM (inactive).

The values are drawn from PubChem BioAssay AID449750 (Broad Institute, 2010).
